# From patent US20130116231A1, “TYROSINE KINASE INHIBITORS” (Merck Sharp & Dohme Corp., priority 2010, published 2013)
# Target: T1, human c-Met (Homo sapiens, UniProt P08581)
# T1 construct: Recombinant GST-tagged cytosolic domains of human c-Met; 6xHis; made in house; host or cells: Sf9 or Sf21 insect cells (baculovirus)
# Test: in vitro kinase assay (homogeneous time-resolved tyrosine kinase assay, METKA)
# Format: biochemical
# Settings: recombinant GST-tagged c-Met cytosolic domain, HTRF, 50 μM MgATP; read-out: Biological Activity (METKA IC50) Activity Code
# Excerpt: Recombinant GST-tagged cytosolic domains of human c-Met and other receptor tyrosine kinases including mouse c-Met, human Ron, KDR, IGFR, EGFR, FGFR, Mer, TrkA and Tie2 are used to determine whether the compounds of the instant invention modulate the enzymatic activities of these kinases.
# Soluble recombinant GST-tagged cytosolic domains of c-Met and other receptor tyrosine kinases are expressed in a baculovirus system (Pharmingen) according to a protocol recommended by the manufacturer. The c-DNA encoding each cytosolic domain is subcloned into a baculovirus expression vector (pGcGHLT-A, B or C, Pharmingen) containing an in frame 6× histidine tag and a GST tag. The resulting plasmid construct and BaculoGold baculovirus DNA (Pharmingen) are used to co-transfect Sf9 or Sf21 insect cells. After confirming expression of GST-tagged kinase fusion, a high titer recombinant baculovirus stock is produced, expression conditions are optimized, and a scaled up expression of rat KDR-GST fusion is performed. The fusion kinase is then purified from the insect cell lysate by affinity chromatography using glutathione agarose (Pharmingen). The purified protein is dialyzed against 50% glycerol, 2 mM DTT, 50 mM Tris-HCl (pH 7.4) and stored at −20° C. The protein concentrations of the fusion proteins are determined using Coomassie Plus Protein Assay (Pierce) with BSA as standard.
# The kinase activities of c-Met and other kinases are measured using a modified version of the homogeneous time-resolved tyrosine kinase assay described by Park et al. (1999, Anal. Biochem. 269:94-104).
# The procedure for determining the potency of a compound to inhibit c-Met kinase comprises the following steps: • 1. Prepare 3-fold serial diluted compound solutions in 100% dimethyl sulfoxide (DMSO) at 20× of the desired final concentrations in a 96 well plate. • 2. Prepare a master reaction mix containing 6.67 mM MgCl2, 133.3 mM NaCl, 66.7 mM Tris-HCl (pH 7.4), 0.13 mg/ml BSA, 2.67 mM dithiothreitol, 0.27 nM recombinant c-Met and 666.7 nM biotinylated synthetic peptide substrate (biotin-ahx-EQEDEPEGDYFEWLE-CONH2) (SEQ.ID.NO.:1). • 3. In a black assay plate, add 2.5 μl of compound solution (or DMSO) and 37.5 μl of master reaction mix per well. Initiate the kinase reaction by adding 10 μl of 0.25 mM MgATP per well. Allow the reactions to proceed for 80 min at room temperature. The final conditions for the reaction are 0.2 nM c-Met, 0.5 μM substrate, 50 μM MgATP, […], 100 mM NaCl, 2 mM DTT, 0.1 mg/ml BSA, 50 mM Tris (pH 7.4) and 5% DMSO. • 4. Stop the kinase reaction with 50 μl of Stop/Detection buffer containing 10 mM EDTA, 25 mM HEPES, 0.1% TRITON X-100, 0.126 μg/ml Eu-chelate labeled anti-phosphotyrosine antibody PY20 (cat. #AD0067, PerkinElmer) and 45 μg/ml Streptavidin-allophycocyanin conjugate (cat. #PJ25S, Prozyme). • 5. Read HTRF signals on a Victor reader (PerkinElmer) in HTRF mode after 60 min. • 6. IC50 is determined by fitting the observed relationship between compound concentration and HTRF signal with a 4-parameter logistic equation. Essentially the same procedure was used to determine the potency of compounds to inhibit mouse c-Met, human Ron, KDR, IGFR, EGFR, FGFR, Mer, TrkA and Tie2 except that the concentration of enzyme varied in individual assays (0.2 nM mouse c-Met; 2.5 nM Ron, 8 nM KDR; 0.24 nM IGFR; 0.24 nM EGFR; 0.14 nM FGFR; 16 nM Mer; 8 nM TrkA; 8 nM Tie2).
# T1 sequence (P08581 956-1390 limits assumed): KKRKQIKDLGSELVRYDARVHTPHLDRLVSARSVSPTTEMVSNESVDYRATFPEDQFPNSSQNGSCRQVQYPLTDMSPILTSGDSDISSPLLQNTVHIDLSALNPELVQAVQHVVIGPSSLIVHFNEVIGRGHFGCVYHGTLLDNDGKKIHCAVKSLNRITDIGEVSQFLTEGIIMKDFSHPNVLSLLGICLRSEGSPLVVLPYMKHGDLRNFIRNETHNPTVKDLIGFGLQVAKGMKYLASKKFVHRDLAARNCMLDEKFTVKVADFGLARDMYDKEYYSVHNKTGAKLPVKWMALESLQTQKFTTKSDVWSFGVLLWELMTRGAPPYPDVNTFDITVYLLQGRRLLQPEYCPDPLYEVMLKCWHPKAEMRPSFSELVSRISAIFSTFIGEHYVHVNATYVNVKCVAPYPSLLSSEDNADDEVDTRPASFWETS
row,Structure (SMILES),IC50
1,"CC(Oc1ccc2ncccc2c1)c1nn(-c2cccc(Br)c2)ccc1=O (single isomer, unassigned) [Example 113, 1-(3-bromophenyl)-3-[1-(quinolin-6-yloxy)ethyl]pyridazin-4(1H)-one]",1 to 3 µM
2,"CC(Oc1ccc2ncccc2c1)c1nn(-c2cccc(Br)c2)ccc1=O (single isomer, unassigned) [Example 114, 1-(3-bromophenyl)-3-[1-(quinolin-6-yloxy)ethyl]pyridazin-4(1H)-one]",1 to 3 µM
3,"CC(Cc1nn(-c2cnn(C)c2)ccc1=O)c1ccc2ncccc2c1 (single isomer, unassigned) [Example 125, 1-(1-methyl-1H-pyrazol-4-yl)-3-(2-quinolin-6-ylpropyl)pyridazin-4(1H)-one]",< 0.1 µM
4,"CC(Cc1nn(-c2cnn(C)c2)ccc1=O)c1ccc2ncccc2c1 (single isomer, unassigned) [Example 126, 1-(1-methyl-1H-pyrazol-4-yl)-3-(2-quinolin-6-ylpropyl)pyridazin-4(1H)-one]",0.1 to 1 µM
5,"CC(Oc1nn(-c2cnn(C)c2)ccc1=O)c1ccc2ncccc2c1 (single isomer, unassigned) [Example 138, 1-(1-methyl-1H-pyrazol-4-yl)-3-(1-quinolin-6-ylethoxy)pyridazin-4(1H)-one]",0.1 to 1 µM
6,"CC(Oc1nn(-c2cnn(C)c2)ccc1=O)c1ccc2ncccc2c1 (single isomer, unassigned) [Example 139, 1-(1-methyl-1H-pyrazol-4-yl)-3-(1-quinolin-6-ylethoxy)pyridazin-4(1H)-one]",0.1 to 1 µM
7,"COc1cnc2ccc(C(C)Oc3nn(-c4cnn(C)c4)ccc3=O)cc2c1 (single isomer, unassigned) [Example 140, 3-[1-(3-methoxyquinolin-6-yl)ethoxy]-1-(1-methyl-1H-pyrazol-4-yl)pyridazin-4(1H)-one]",< 0.1 µM
8,"CCOc1cnc2ccc(C(C)Oc3nn(-c4cnn(C)c4)ccc3=O)cc2c1 (single isomer, unassigned) [Example 141, 3-[1-(3-ethoxyquinolin-6-yl)ethoxy]-1-(1-methyl-1H-pyrazol-4-yl)pyridazin-4(1H)-one]",< 0.1 µM
9,"CCOc1cnc2ccc(C(C)Oc3nn(-c4cnn(C)c4)ccc3=O)cc2c1 (single isomer, unassigned) [Example 142, 3-[1-(3-ethoxyquinolin-6-yl)ethoxy]-1-(1-methyl-1H-pyrazol-4-yl)pyridazin-4(1H)-one]",1 to 3 µM
10,"COCCOc1cnc2ccc(C(C)Oc3nn(-c4cnn(C)c4)ccc3=O)cc2c1 (single isomer, unassigned) [Example 143, 3-{1-[3-(2-methoxyethoxy)quinolin-6-yl]ethoxy}-1-(1-methyl-1H-pyrazol-4-yl)pyridazin-4(1H)-one]",< 0.1 µM
11,"COCCOc1cnc2ccc(C(C)Oc3nn(-c4cnn(C)c4)ccc3=O)cc2c1 (single isomer, unassigned) [Example 144, 3-{1-[3-(2-methoxyethoxy)quinolin-6-yl]ethoxy}-1-(1-methyl-1H-pyrazol-4-yl)pyridazin-4(1H)-one]",0.1 to 1 µM
12,"COc1ccnc2ccc(C(C)Oc3nn(-c4cnn(C)c4)ccc3=O)cc12 (single isomer, unassigned) [Example 145, 3-[1-(4-methoxyquinolin-6-yl)ethoxy]-1-(1-methyl-1H-pyrazol-4-yl)pyridazin-4(1H)-one]",< 0.1 µM
13,"CCn1cc(-n2ccc(=O)c(OC(C)c3ccc4nccc(OC)c4c3)n2)cn1 (single isomer, unassigned) [Example 146, 1-(1-ethyl-1H-pyrazol-4-yl)-3-[1-(4-methoxyquinolin-6-yl)ethoxy]pyridazin-4(1H)-one]",< 0.1 µM
14,"Cn1cc(-n2ccc(=O)c(COc3ccc4ncccc4c3)n2)cn1 [Example 1, 1-(1-Methyl-1H-pyrazol-4-yl)-3-[(quinolin-6-yloxy)methyl]pyridazin-4(1H)-one]",< 0.1 µM
15,"Cn1cc(-n2ccc(=O)c(COc3cccc4cnccc34)n2)cn1 [Example 2, 3-[(isoquinolin-5-yloxy)methyl]-1-(1-methyl-1H-pyrazol-4-yl)pyridazin-4(1H)-one]",1 to 3 µM
16,"N#Cc1cccc(-n2ccc(=O)c(COc3ccc4ncccc4c3)n2)c1 [Example 3, 3-{4-oxo-3-[(quinolin-6-yloxy)methyl]pyridazin-1(4H)-yl}benzonitrile]",< 0.1 µM
17,"N#Cc1cc(F)cc(-n2ccc(=O)c(COc3ccc4ncccc4c3)n2)c1 [Example 4, 3-fluoro-5-{4-oxo-3-[(quinolin-6-yloxy)methyl]pyridazin-1(4H)-yl}benzonitrile]",< 0.1 µM
18,"N#Cc1ccc(-n2ccc(=O)c(COc3ccc4ncccc4c3)n2)cc1 [Example 5, 4-{4-oxo-3-[(quinolin-6-yloxy)methyl]pyridazin-1(4H)-yl}benzonitrile]",< 0.1 µM
19,"N#Cc1cc(Cl)cc(-n2ccc(=O)c(COc3ccc4ncccc4c3)n2)c1 [Example 6, 3-chloro-5-{4-oxo-3-[(quinolin-6-yloxy)methyl]pyridazin-1(4H)-yl}benzonitrile]",< 0.1 µM
20,"O=c1ccn(-c2cc(F)cc(F)c2)nc1COc1ccc2ncccc2c1 [Example 7, 1-(3,5-difluorophenyl)-3-[(quinolin-6-yloxy)methyl] pyridazin-4(1H)-one]",< 0.1 µM
21,"O=c1ccn(-c2ccc(F)c(F)c2)nc1COc1ccc2ncccc2c1 [Example 8, 1-(3,4-difluorophenyl)-3-[(quinolin-6-yloxy)methyl] pyridazin-4(1H)-one]",< 0.1 µM
22,"Cn1cc(-n2ccc(=O)c(COc3ccc([N+](=O)[O-])cc3)n2)cn1 [Example 9, 1-(1-methyl-1H-pyrazol-4-yl)-3-[(4-nitrophenoxy)methyl] pyridazin-4(1H)-one]",1 to 3 µM
23,"O=c1ccn(-c2cc(F)c(F)c(F)c2)nc1COc1ccc2ncccc2c1 [Example 10, 3-[(quinolin-6-yloxy)methyl]-1-(3,4,5-trifluorophenyl) pyridazin-4(1H)-one]",< 0.1 µM
24,"Cn1cc(-n2ccc(=O)c(COc3ccc4nccnc4c3)n2)cn1 [Example 11, 1-(1-methyl-1H-pyrazol-4-yl)-3-[(quinoxalin-6-yloxy)methyl] pyridazin-4(1H)-one]",< 0.1 µM
25,"CCOC(=O)c1ccc(OCc2nn(-c3cnn(C)c3)ccc2=O)cc1 [Example 12, ethyl 4-{[1-(1-methyl-1H-pyrazol-4-yl)-4-oxo-1,4-dihydropyridazin-3-yl]methoxy}benzoate]",0.1 to 1 µM
26,Cc1ccc2cc(OCc3nn(-c4cnn(C)c4)ccc3=O)ccc2n1 [Example 13],0.1 to 1 µM
27,"Cn1cc(-n2ccc(=O)c(COc3ccc4nc(C#N)sc4c3)n2)cn1 [Example 14, 6-{[1-(1-methyl-1H-pyrazol-4-yl)-4-oxo-1,4-dihydropyridazin-3-yl]methoxy}-1,3-benzothiazole-2-carbonitrile]",1 to 3 µM
28,"Cn1cc(C(=O)Nc2cccc(OCc3nn(-c4cnn(C)c4)ccc3=O)c2)cn1 [Example 15, 1-Methyl-N-(3-{[1-(1-methyl-1H-pyrazol-4-yl)-4-oxo-1,4-dihydropyridazin-3-yl]methoxy}phenyl)-1H-pyrazole-4-carboxamide]",1 to 3 µM
29,"CNC(=O)c1ccc(OCc2nn(-c3cnn(C)c3)ccc2=O)cc1 [Example 16, N-methyl-4-{[1-(1-methyl-1H-pyrazol-4-yl)-4-oxo-1,4-dihydropyridazin-3-yl]methoxy}benzamide]",0.1 to 1 µM
30,"Cn1cc(-n2ccc(=O)c(COc3ccc(C(=O)NCC(F)(F)F)cc3)n2)cn1 [Example 18, 4-{[1-(1-methyl-1H-pyrazol-4-yl)-4-oxo-1,4-dihydropyridazin-3-yl]methoxy}-N-(2,2,2-trifluoroethyl) benzamide]",1 to 3 µM
